Target: mGluR5 (Homo sapiens, UniProt P41594)
Assay: mGluR5 positive allosteric modulator (PAM) functional assay
Assay type: cell-based

Sequence of mGluR5 (P41594 21-1212): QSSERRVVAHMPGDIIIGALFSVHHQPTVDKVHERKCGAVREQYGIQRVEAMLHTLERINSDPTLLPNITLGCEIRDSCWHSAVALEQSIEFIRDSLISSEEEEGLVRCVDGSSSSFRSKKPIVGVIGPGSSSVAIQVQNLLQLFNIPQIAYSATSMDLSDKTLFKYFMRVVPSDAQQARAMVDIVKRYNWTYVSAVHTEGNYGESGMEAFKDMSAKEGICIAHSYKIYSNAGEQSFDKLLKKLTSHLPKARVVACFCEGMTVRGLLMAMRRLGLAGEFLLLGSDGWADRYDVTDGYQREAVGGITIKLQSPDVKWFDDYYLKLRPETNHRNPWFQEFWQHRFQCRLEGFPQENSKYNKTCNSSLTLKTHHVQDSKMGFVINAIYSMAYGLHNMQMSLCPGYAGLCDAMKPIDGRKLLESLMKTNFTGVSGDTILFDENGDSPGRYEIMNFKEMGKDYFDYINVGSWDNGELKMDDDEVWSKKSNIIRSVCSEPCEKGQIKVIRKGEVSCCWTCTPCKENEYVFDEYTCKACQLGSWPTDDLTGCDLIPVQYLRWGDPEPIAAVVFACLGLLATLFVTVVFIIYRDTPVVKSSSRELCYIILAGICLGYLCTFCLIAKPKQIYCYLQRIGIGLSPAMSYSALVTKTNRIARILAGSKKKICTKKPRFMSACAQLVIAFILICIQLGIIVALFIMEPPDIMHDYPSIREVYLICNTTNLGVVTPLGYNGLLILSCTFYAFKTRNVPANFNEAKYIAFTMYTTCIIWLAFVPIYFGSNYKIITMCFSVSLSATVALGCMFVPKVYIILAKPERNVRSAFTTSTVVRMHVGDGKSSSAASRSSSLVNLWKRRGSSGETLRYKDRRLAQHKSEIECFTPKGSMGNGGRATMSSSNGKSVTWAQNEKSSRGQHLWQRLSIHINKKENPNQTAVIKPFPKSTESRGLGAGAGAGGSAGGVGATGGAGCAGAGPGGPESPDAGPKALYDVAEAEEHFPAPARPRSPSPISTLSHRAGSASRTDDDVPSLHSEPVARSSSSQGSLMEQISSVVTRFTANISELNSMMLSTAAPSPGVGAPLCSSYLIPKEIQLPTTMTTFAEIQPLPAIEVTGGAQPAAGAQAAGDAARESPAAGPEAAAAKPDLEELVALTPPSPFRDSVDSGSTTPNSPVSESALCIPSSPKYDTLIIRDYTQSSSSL

SMILES	EC50
CCC(OC)c1nc(-c2ccc(C#Cc3ccccn3)cn2)no1 (centres unmarked) [Compound 138, 5-(1-methoxypropyl)-3-(5-(pyridin-2-ylethynyl)pyridin-2-yl)-1,2,4-oxadiazole]	100 to 300 nM
CC(C)NC(C)c1nc(-c2ccc(C#Cc3ccccn3)cn2)no1 (centres unmarked) [Compound 140, N-(1-(3-(5-(pyridin-2-ylethynyl)pyridin-2-yl)-1,2,4-oxadiazol-5-yl)ethyl)propan-2-amine]	100 to 300 nM
CC(c1nc(-c2ccc(C#Cc3ccccn3)cn2)no1)N(C)C (centres unmarked) [Compound 143, N,N-dimethyl-1-(3-(5-(pyridin-2-ylethynyl)pyridin-2-yl)-1,2,4-oxadiazol-5-yl)ethanamine]	100 to 300 nM
CNC(C)(C)c1nc(-c2ccc(C#Cc3ccccn3)cn2)no1 [Compound 144, N-methyl-2-(3-(5-(pyridin-2-ylethynyl)pyridin-2-yl)-1,2,4-oxadiazol-5-yl)propan-2-amine]	300 to 1000 nM
CCOC(=O)NC(CC)c1nc(-c2ccc(C#Cc3ccccn3)cn2)no1 (centres unmarked) [Compound 146, ethyl (1-(3-(5-(pyridin-2-ylethynyl)pyridin-2-yl)-1,2,4-oxadiazol-5-yl)propyl)carbamate]	100 to 300 nM
CCC(NC1CC1)c1nc(-c2ccc(C#Cc3ccccn3)cn2)no1 (centres unmarked) [Compound 149, N-(1-(3-(5-(pyridin-2-ylethynyl)pyridin-2-yl)-1,2,4-oxadiazol-5-yl)propyl)cyclopropanamine]	300 to 1000 nM
CN1CCC1c1nc(-c2ccc(C#Cc3ccccn3)cn2)no1 (centres unmarked) [Compound 150, 5-(1-methylazetidin-2-yl)-3-(5-(pyridin-2-ylethynyl)pyridin-2-yl)-1,2,4-oxadiazole]	300 to 1000 nM
C(#Cc1ccccn1)c1ccc(-c2noc(C3CCCN3)n2)nc1 (centres unmarked) [Compound 151, 3-(5-(pyridin-2-ylethynyl)pyridin-2-yl)-5-(pyrrolidin-2-yl)-1,2,4-oxadiazole]	300 to 1000 nM
CN1CC(F)(F)C[C@@H]1c1nc(-c2ccc(C#Cc3ccccn3)cn2)no1 [Compound 154, (R)-5-(4,4-difluoro-1-methylpyrrolidin-2-yl)-3-(5-(pyridin-2-ylethynyl)pyridin-2-yl)-1,2,4-oxadiazole]	300 to 1000 nM
CN1CC(F)(F)C[C@H]1c1nc(-c2ccc(C#Cc3ccccn3)cn2)no1 [Compound 155, (S)-5-(4,4-difluoro-1-methylpyrrolidin-2-yl)-3-(5-(pyridin-2-ylethynyl)pyridin-2-yl)-1,2,4-oxadiazole]	100 to 300 nM
CN1C[C@@H](F)C[C@@H]1c1nc(-c2ccc(C#Cc3ccccn3)cn2)no1 [Compound 156, 5-((2R,4S)-4-fluoro-1-methylpyrrolidin-2-yl)-3-(5-(pyridin-2-ylethynyl)pyridin-2-yl)-1,2,4-oxadiazole]	300 to 1000 nM
COC(C)c1nc(-c2ccc(C#Cc3ccncc3)cn2)no1 (centres unmarked) [Compound 159, 5-(1-methoxyethyl)-3-(5-(pyridin-4-ylethynyl)pyridin-2-yl)-1.2.4-oxadiazole]	100 to 300 nM
C(#Cc1ccc(-c2noc(C3CCCN3)n2)nc1)c1ccccc1 (centres unmarked) [Compound 165, 3-(5-(phenylethynyl)pyridin-2-yl)-5-(pyrrolidin-2-yl)-1,2,4-oxadiazole]	300 to 1000 nM
Clc1cccc(C#Cc2ccc(-c3noc(C4CCCN4)n3)nc2)c1 (centres unmarked) [Compound 166, 3-(5-((3-chlorophenyl)ethynyl)pyridin-2-yl)-5-(pyrrolidin-2-yl)-1,2,4-oxadiazole]	300 to 1000 nM
CN1C[C@H](F)C[C@@H]1c1nc(-c2ccc(C#Cc3ccccn3)cn2)no1 [Compound 169, 5-((2R,4R)-4-fluoro-1-methylpyrrolidin-2-yl)-3-(5-(pyridin-2-ylethynyl)pyridin-2-yl)-1,2,4-oxadiazole]	300 to 1000 nM
CN1CC[C@@H]2C[C@@]21c1nc(-c2ccc(C#Cc3ccccn3)cn2)no1 [Compound 172, 5-((1S,5R)-2-methyl-2-azabicyclo[3.1.0]hexan-1-yl)-3-(5-(pyridin-2-ylethynyl)pyridin-2-yl)-1,2,4-oxadiazole]	300 to 1000 nM
C(#Cc1ccccn1)c1ccc(-c2noc(C3CC4CCN3C4)n2)nc1 (centres unmarked) [Compound 174, 5-(1-azabicyclo[2.2.1]heptan-2-yl)-3-(5-(pyridin-2-ylethynyl)pyridin-2-yl)-1,2,4-oxadiazole]	100 to 300 nM

Other lines, results leading:

EC50	SMILES
30 to 100 nM	CCC(C)c1nc(-c2ccc(C#Cc3ccccn3)cn2)no1 (centres unmarked) [Compound 134, 5-(sec-butyl)-3-(5-(pyridin-2-ylethynyl)pyridin-2-yl)-1,2,4-oxadiazole]
≤ 30 nM	CCC(CC)c1nc(-c2ccc(C#Cc3ccccn3)cn2)no1 [Compound 136, 5-(pentan-3-yl)-3-(5-(pyridin-2-ylethynyl)pyridin-2-yl)-1,2,4-oxadiazole]
30 to 100 nM	C(#Cc1ccccn1)c1ccc(-c2noc(C3CCCC3)n2)nc1 [Compound 137, 5-cyclopentyl-3-(5-(pyridin-2-ylethynyl)pyridin-2-yl)-1,2,4-oxadiazole]
30 to 100 nM	CC(c1nc(-c2ccc(C#Cc3ccccn3)cn2)no1)N1CCCC1(C)C (centres unmarked) [Compound 139, 5-(1-(2,2-dimethylpyrrolidin-1-yl)ethyl)-3-(5-(pyridin-2-ylethynyl)pyridin-2-yl)-1,2,4-oxadiazole]
30 to 100 nM	CC(c1nc(-c2ccc(C#Cc3ccccn3)cn2)no1)N1CCCC1 (centres unmarked) [Compound 142, 3-(5-(pyridin-2-ylethynyl)pyridin-2-yl)-5-(1-(pyrrolidin-1-yl)ethyl)-1,2,4-oxadiazole]
30 to 100 nM	CN(C)C(C)(C)c1nc(-c2ccc(C#Cc3ccccn3)cn2)no1 [Compound 145, N,N-dimethyl-2-(3-(5-(pyridin-2-ylethynyl)pyridin-2-yl)-1,2,4-oxadiazol-5-yl)propan-2-amine]
30 to 100 nM	CCC(c1nc(-c2ccc(C#Cc3ccccn3)cn2)no1)N(C)C (centres unmarked) [Compound 148, N,N-dimethyl-1-(3-(5-(pyridin-2-ylethynyl)pyridin-2-yl)-1,2,4-oxadiazol-5-yl)propan-1-amine]
30 to 100 nM	CN1C(c2nc(-c3ccc(C#Cc4ccccn4)cn3)no2)CCC1(C)C (centres unmarked) [Compound 153, 3-(5-(pyridin-2-ylethynyl)pyridin-2-yl)-5-(1,5,5-trimethylpyrrolidin-2-yl)-1,2,4-oxadiazole]
≤ 30 nM	CCC(C)c1nc(-c2ccc(C#Cc3ccncc3)cn2)no1 (centres unmarked) [Compound 158, 5-(sec-butyl)-3-(5-(pyridin-4-ylethynyl)pyridin-2-yl)-1,2,4-oxadiazole]
30 to 100 nM	CCC(CC)c1nc(-c2ccc(C#Cc3ccncc3)cn2)no1 [Compound 160, 5-(pentan-3-yl)-3-(5-(pyridin-4-ylethynyl)pyridin-2-yl)-1,2,4-oxadiazole]
30 to 100 nM	CCC(OC)c1nc(-c2ccc(C#Cc3ccncc3)cn2)no1 (centres unmarked) [Compound 161, 5-(1-methoxypropyl)-3-(5-(pyridin-4-ylethynyl)pyridin-2-yl)-1,2,4-oxadiazole]
30 to 100 nM	C(#Cc1ccccn1)c1ccc(-c2noc(C34CCCN3CCC4)n2)nc1 [Compound 170, 5-(hexahydro-1H-pyrrolizin-7a-yl)-3-(5-(pyridin-2-ylethynyl)pyridin-2-yl)-1,2,4oxadiazole]

— patent US10533000B2, “Metabotrophic glutamate receptor 5 modulators and methods of use thereof” (Sunovion Pharmaceuticals, Inc., priority 2011, dated 2020)
